According to PubChem BioAssay AID1963444 (Molecular Pharmacology Branch, DTP, NCI, 2024):
pIC50: −log10 of the molar value.

System: HSSY-II complex spheroid growth, percent test/control
Assay: Anticancer human tumor HSSY-II cell line growth inhibition [Asc];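 note: spheroids exposed to drug for 7 days before reading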
Details: for pIC50: curve of first compound; for viability, T/C: stronger effect = lower value
How it was run: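 Spheroid model: tumor line + HUVEC + hMSC. Single agents and combinations; top conc. at/near clinical Cmax (10 microM if undetermined), half-log dilutions. DMSO stocks at 800-fold test concentration.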

[1] = second compound 0.03 µM, first compound 0.0316 µM
[2] = second compound 0.03 µM, first compound 0.1 µM
[3] = second compound 0.03 µM, first compound 0.316 µM
[4] = second compound 0.03 µM, first compound 1 µM
[5] = second compound 0.03 µM, first compound 3.16 µM
[6] = second compound 0.03 µM, first compound 10 µM
[7] = second compound 0.0949 µM, first compound 0.0316 µM
[8] = second compound 0.0949 µM, first compound 0.1 µM
[9] = second compound 0.0949 µM, first compound 0.316 µM
[10] = second compound 0.0949 µM, first compound 1 µM
[11] = second compound 0.0949 µM, first compound 3.16 µM
[12] = second compound 0.0949 µM, first compound 10 µM
[13] = second compound 0.3 µM, first compound 0.0316 µM
[14] = second compound 0.3 µM, first compound 0.1 µM
[15] = second compound 0.3 µM, first compound 0.316 µM
[16] = second compound 0.3 µM, first compound 1 µM
[17] = second compound 0.3 µM, first compound 3.16 µM
[18] = second compound 0.3 µM, first compound 10 µM
[19] = second compound 0.949 µM, first compound 0.0316 µM
[20] = second compound 0.949 µM, first compound 0.1 µM
[21] = second compound 0.949 µM, first compound 0.316 µM
[22] = second compound 0.949 µM, first compound 1 µM
[23] = second compound 0.949 µM, first compound 3.16 µM
[24] = second compound 0.949 µM, first compound 10 µM
[25] = second compound 3 µM, first compound 0.0316 µM
[26] = second compound 3 µM, first compound 0.1 µM
[27] = second compound 3 µM, first compound 0.316 µM
[28] = second compound 3 µM, first compound 1 µM
[29] = second compound 3 µM, first compound 3.16 µM
[30] = second compound 3 µM, first compound 10 µM
[31] = second compound 0.03 µM, first compound 0.00316 µM
[32] = second compound 0.03 µM, first compound 0.01 µM
[33] = second compound 0.0949 µM, first compound 0.00316 µM
[34] = second compound 0.0949 µM, first compound 0.01 µM
[35] = second compound 0.3 µM, first compound 0.00316 µM
[36] = second compound 0.3 µM, first compound 0.01 µM
[37] = second compound 0.949 µM, first compound 0.00316 µM
[38] = second compound 0.949 µM, first compound 0.01 µM
[39] = second compound 3 µM, first compound 0.00316 µM
[40] = second compound 3 µM, first compound 0.01 µM

SMILES	pIC50 (second compound 0.03 µM)	pIC50 (second compound 0.0949 µM)	pIC50 (second compound 0.3 µM)	pIC50 (second compound 0.949 µM)	pIC50 (second compound 3 µM)	viability, T/C [1] [%]	viability, T/C [2] [%]	viability, T/C [3] [%]	viability, T/C [4] [%]	viability, T/C [7] [%]	viability, T/C [8] [%]	viability, T/C [9] [%]	viability, T/C [10] [%]	viability, T/C [13] [%]	viability, T/C [14] [%]	viability, T/C [15] [%]	viability, T/C [16] [%]	viability, T/C [19] [%]	viability, T/C [20] [%]	viability, T/C [21] [%]	further results
C=CC(=O)N1CCN(c2nc(=O)n(-c3c(C)ccnc3C(C)C)c3nc(-c4c(O)cccc4F)c(F)cc23)C(C)C1 (stereo not given) + CCN1C(C(=O)NC23CCC(C(=O)O)(CC2)CC3)C(c2cccc(Cl)c2F)C2(C(=O)Nc3cc(Cl)ccc32)C12CCCCC2	5.14	5.59	> 7.50	> 7.50	> 7.50	87.5	89.6	89.5	88	60.3	63.9	65.2	62.7	25.3	26.3	26	23.6	7.57	7.88	7.75	viability, T/C [5]: 84.7%; viability, T/C [6]: 36.9%; viability, T/C [11]: 47.3%; viability, T/C [12]: 18.4%; viability, T/C [17]: 20.9%; viability, T/C [18]: 9.83%; viability, T/C [22]: 6.93%; viability, T/C [23]: 6.22%; viability, T/C [24]: 6.06%; viability, T/C [25]: 2.1%; viability, T/C [26]: 2.5%; viability, T/C [27]: 2.3%; viability, T/C [28]: 2.77%; viability, T/C [29]: 2.35%; viability, T/C [30]: 1.69%
CNC(C)C(=O)NC1CN(S(=O)(=O)c2cccc(S(=O)(=O)N3CCC4CCC(C(=O)NC(c5ccccc5)c5ccccc5)N4C(=O)C(NC(=O)C(C)NC)C3)c2)CCC2CCC(C(=O)NC(c3ccccc3)c3ccccc3)N2C1=O (stereo not given) + CCN1C(C(=O)NC23CCC(C(=O)O)(CC2)CC3)C(c2cccc(Cl)c2F)C2(C(=O)Nc3cc(Cl)ccc32)C12CCCCC2	< 6.00	8.48	> 8.50	> 8.50	> 8.50	65.6	69.1	66.8	63.1	36.8	39.5	39.1	37.5	13.3	11	14.3	11.2	1.39	1.14	0.75	viability, T/C [31]: 76.3%; viability, T/C [32]: 81.6%; viability, T/C [33]: 49.2%; viability, T/C [34]: 48.4%; viability, T/C [35]: 13.5%; viability, T/C [36]: 13.5%; viability, T/C [37]: 2.72%; viability, T/C [38]: 1.74%; viability, T/C [22]: 1.15%; viability, T/C [39]: 0.64%; viability, T/C [40]: 0.51%; viability, T/C [25]: 0.48%; viability, T/C [26]: 0.47%; viability, T/C [27]: 0.62%; viability, T/C [28]: 0.46%
COc1c(OCCCN2CCOCC2)ccc2c3n(c(=NC(=O)c4cnc(N)nc4)nc12)CCN3 + CCN1C(C(=O)NC23CCC(C(=O)O)(CC2)CC3)C(c2cccc(Cl)c2F)C2(C(=O)Nc3cc(Cl)ccc32)C12CCCCC2	7.57	8.44	> 8.50	> 8.50	> 8.50	42.1	32.5	21	8.92	27.9	18.8	11.1	5.81	13.5	9.78	5.2	1.51	3.58	2.14	1.08	viability, T/C [31]: 83.3%; viability, T/C [32]: 70.4%; viability, T/C [33]: 50.1%; viability, T/C [34]: 44.8%; viability, T/C [35]: 27.8%; viability, T/C [36]: 18.8%; viability, T/C [37]: 5.84%; viability, T/C [38]: 4.85%; viability, T/C [22]: 0.52%; viability, T/C [39]: 1.52%; viability, T/C [40]: 1.05%; viability, T/C [25]: 0.78%; viability, T/C [26]: 0.45%; viability, T/C [27]: 0.29%; viability, T/C [28]: 0.25%

Now from value to molecule, other results behind:

pIC50 (second compound 0.03 µM)	pIC50 (second compound 0.0949 µM)	pIC50 (second compound 0.3 µM)	pIC50 (second compound 0.949 µM)	pIC50 (second compound 3 µM)	SMILES	viability, T/C [1] [%]	viability, T/C [2] [%]	viability, T/C [3] [%]	viability, T/C [4] [%]	viability, T/C [7] [%]	viability, T/C [8] [%]	viability, T/C [9] [%]	viability, T/C [10] [%]	viability, T/C [13] [%]	viability, T/C [14] [%]	viability, T/C [15] [%]	viability, T/C [16] [%]	viability, T/C [19] [%]	viability, T/C [20] [%]	viability, T/C [21] [%]	further results
5.22	5.49	> 7.50	> 7.50	> 7.50	C#Cc1c(F)ccc2cc(O)cc(-c3ncc4c(N5CC6CCC(C5)N6)nc(OCC56CCCN5CC(F)C6)nc4c3F)c12 (stereo not given) + CCN1C(C(=O)NC23CCC(C(=O)O)(CC2)CC3)C(c2cccc(Cl)c2F)C2(C(=O)Nc3cc(Cl)ccc32)C12CCCCC2	91.6	96.6	91.1	90.7	52.4	62.3	65.7	59	24.8	27.5	26	20.6	7.03	7.37	6.79	viability, T/C [5]: 80.8%; viability, T/C [6]: 24.9%; viability, T/C [11]: 50.6%; viability, T/C [12]: 9.38%; viability, T/C [17]: 20.2%; viability, T/C [18]: 0.94%; viability, T/C [22]: 5.65%; viability, T/C [23]: 5.67%; viability, T/C [24]: 0.22%; viability, T/C [25]: 2.13%; viability, T/C [26]: 2.33%; viability, T/C [27]: 2.2%; viability, T/C [28]: 1.74%; viability, T/C [29]: 1.34%; viability, T/C [30]: 0.27%
5.96	6.47	> 7.50	> 7.50	> 7.50	C=C(F)C(=O)N1CCN(c2nc(OCC3CCCN3C)nc3c2CCN(c2cccc4cccc(Cl)c24)C3)CC1CC#N (stereo not given) + CCN1C(C(=O)NC23CCC(C(=O)O)(CC2)CC3)C(c2cccc(Cl)c2F)C2(C(=O)Nc3cc(Cl)ccc32)C12CCCCC2	93.7	82.3	77.1	55.2	64.5	66.6	49.1	26.5	26.3	23.1	19.9	13.4	8.79	7.11	6.61	viability, T/C [5]: 1.72%; viability, T/C [6]: 0.13%; viability, T/C [11]: 0.75%; viability, T/C [12]: 0.1%; viability, T/C [17]: 0.42%; viability, T/C [18]: 0.12%; viability, T/C [22]: 3.73%; viability, T/C [23]: 0.07%; viability, T/C [24]: 0.12%; viability, T/C [25]: 3.47%; viability, T/C [26]: 2.72%; viability, T/C [27]: 2.77%; viability, T/C [28]: 1.35%; viability, T/C [29]: 0.15%; viability, T/C [30]: 0.21%
